Data as given in PMC5874716, “Antimicrobial Peptides for Topical Treatment of Osteomyelitis and Implant-Related Infections: Study in the Spongy Bone” (Pharmaceuticals, 2018).
Where a name gives a salt, the structure may show the parent alone. One block for each compound: values may come before it. Non-standard residues stand in square brackets, D forms with d. Residues, ends and D or L forms follow the SMILES beside them. No end group written: not given here. βAla = NCCC(=O)O

Experiments:
[1] = test system: E. faecalis clinical isolate (Motol); experiment: microbe, parasite or virus in culture; format: cell-based; settings: clinical isolate Motol, Bioscreen C, at least three times in duplicates
Protocol: (§1) Femur heads (ca. 70 pieces) taken from patients during hip replacement surgery were periodically purchased in the period between 2014–2017 as discarded from the bone tissue bank at University Hospital in Motol, Prague, Czech Republic. The reason for the replacements by artificial prosthesis was the worn out cartilage on the surface of their heads. Bone samples were stored at −80 °C under standard conditions of certified tissue banks. In the laboratory, they were kept at +5 °C overnight and then at room temperature for several hours before they could be used for the experiments. The experiments with this material were approved by the Ethics Committee for Multi-Centric Clinical Trials of the University Hospital Motol, Reference No: EK-655/15. Methicillin-resistant S. aureus (MRSA 6271) ATCC 43300 and P. aeruginosa (5482) ATCC 27853 were purchased from the Czech National Collection of Type Cultures, National Institute of Public Health, Prague, Czech Republic. Methicillin-resistant S. aureus (MRSA (L)) and P. aeruginosa (L) were obtained as multi-resistant clinical isolates from Liberec Regional Hospital, Liberec, Czech Republic. Methicillin-resistant S. aureus (MRSA (M)), E. faecalis and S. epidermidis were obtained as clinical isolates from University Hospital in Motol, Prague. Candida albicans (F7-39/IDE99) came from the mycological collection of the Faculty of Medicine, Palacky University, Olomouc, Czech Republic. C. albicans ATCC MYA-2876, C. tropicalis ATCC 750 and C. glabrata DSY565 were kindly provided by Dr. Hana Sychrová from the Institute of Physiology, Academy of Sciences of the Czech Republic, Prague. Vancomycin hydrochloride, gentamicin sulfate, ceftriaxone disodium salt, amphotericin B, fluconazole, and clotrimazole were obtained from Sigma-Aldrich, Prague, Czech Republic.
(§2) MIC values for peptides were established by observing growth of treated bacteria in HONEYCOMB 100-well microtiter plates (Helsinki, Finland) using a Bioscreen C instrument (Oy Growth Curves, Helsinki, Finland) as previously described. Haemolytic activity of peptides expressed as the concentration of a peptide required for lysis of 50% of human erythrocytes in the assay (LC50) was measured using a Tecan infinite M200 PRO reader (Tecan Austria GmbH, Grödig, Austria). Blood samples for determining haemolytic activity were obtained from healthy volunteers.

[2] = test system: MRSA clinical isolate from University Hospital in Motol (MRSA (M)); experiment: microbe, parasite or virus in culture; format: cell-based; settings: clinical isolate Motol, Bioscreen C, at least three times in duplicates
Protocol: as §1, §2

MRSA 6271 (ATCC 43300) = experiment: microbe, parasite or virus in culture; format: cell-based; settings: growth in 100-well microtiter plates, Bioscreen C, tested at least three times in duplicates
Protocol: as §1, §2

[3] = test system: P. aeruginosa (5482) ATCC 27853; experiment: microbe, parasite or virus in culture; format: cell-based; settings: Bioscreen C, at least three times in duplicates
Protocol: as §1, §2

[4] = test system: MRSA clinical isolate from Liberec Regional Hospital (MRSA (L)); experiment: microbe, parasite or virus in culture; format: cell-based; settings: clinical isolate Liberec, Bioscreen C, at least three times in duplicates
Protocol: as §1, §2

[5] = test system: P. aeruginosa clinical isolate from Liberec Regional Hospital; experiment: microbe, parasite or virus in culture; format: cell-based; settings: clinical isolate Liberec, Bioscreen C, at least three times in duplicates
Protocol: as §1, §2

[6] = test system: S. epidermidis clinical isolate (Motol); experiment: microbe, parasite or virus in culture; format: cell-based; settings: clinical isolate Motol, Bioscreen C, at least three times in duplicates
Protocol: as §1, §2

Candida albicans = format: cell-based; settings: Bioscreen C; at least three times in duplicates
Protocol: as §1, §2

human erythrocytes = experiment: Haemolysis assay; format: cell-based; settings: concentration causing lysis of 50% of human red blood cells; at least three times in duplicates
Protocol: as §2

laboratory rats = settings: infected femurs of laboratory rats treated locally; cited from earlier work
Excerpt: Another issue might be the toxicity of these peptides when applied locally to the bone tissue of laboratory animals or humans. […] None of these animals died.

MIC ([1]; Enterococcus faecalis, read-out: Antimicrobial Activity MIC, E. f. b): 95.2 µM
MIC ([2]; Staphylococcus aureus, MRSA, read-out: Antimicrobial Activity MIC, MRSA b): 4.5 µM
MIC (MRSA 6271 (ATCC 43300); Staphylococcus aureus, read-out: Antimicrobial Activity MIC, MRSA 6271): 325 µM
MIC ([3]; Pseudomonas aeruginosa, ATCC27853, read-out: Antimicrobial Activity MIC, P. a. 5482): 2 µM
MIC ([4]; Staphylococcus aureus, MRSA, read-out: Antimicrobial Activity MIC, MRSA a): 3.9 µM
MIC ([5]; Pseudomonas aeruginosa, read-out: Antimicrobial Activity MIC, P. a. a): > 220 µM
MIC ([6]; Staphylococcus epidermidis, read-out: Antimicrobial Activity MIC, S. e. b): 109 µM
Compound: CNC(C)C1CCC(N)C(OC2C(N)CC(N)C(OC3OCC(C)(O)C(NC)C3O)C2O)O1 (stereo not drawn) [Gentamicin, gentamicin sulfate, reference compound]

Compound: GKWKKLLKKILK-NH2 [III]
Antimicrobial Activity MIC, C. a. (Candida albicans): 9.5 µM
Antimicrobial Activity MIC, E. f. b [1]: >100 µM
Antimicrobial Activity MIC, MRSA b [2]: 25.3 µM
Antimicrobial Activity MIC, MRSA 6271 (MRSA 6271 (ATCC 43300)): 29.7 µM
Antimicrobial Activity MIC, P. a. 5482 [3]: 2.9 µM
Antimicrobial Activity MIC, MRSA a [4]: 11.5 µM
Antimicrobial Activity MIC, P. a. a [5]: 9.5 µM
Antimicrobial Activity MIC, S. e. b [6]: 4.7 µM
Haemolytic Activity LC50 (human erythrocytes): >400 µM

Compound: CC[C@@H](C)[C@@H](NC(=O)[C@@H](CCCCN)NC(=O)[C@@H](CCCCN)NC(=O)[C@@H](CC(C)C)NC(=O)[C@@H](CC(C)C)NC(=O)[C@@H](CCCCN)NC(=O)[C@@H](CCSC)NC(=O)[C@@H](Cc1c[nH]c2ccccc12)NC(=O)[C@H](N)CCCCN)C(=O)N[C@H](CC(C)C)C(=O)N[C@H](CCCCN)C(N)=O [X] (H-[dK][dW][dM][dK][dL][dL][dK][dK][dI][dL][dK]-NH2; N-terminus assumed)
Antimicrobial Activity MIC, C. a. (Candida albicans): 11.3 µM
Antimicrobial Activity MIC, E. f. b [1]: 36 µM
Antimicrobial Activity MIC, MRSA b [2]: 14.0 µM
Antimicrobial Activity MIC, MRSA 6271 (MRSA 6271 (ATCC 43300)): 19.3 µM
Antimicrobial Activity MIC, P. a. 5482 [3]: 4.5 µM
Antimicrobial Activity MIC, MRSA a [4]: 14.0 µM
Antimicrobial Activity MIC, P. a. a [5]: 18.0 µM
Antimicrobial Activity MIC, S. e. b [6]: 3.5 µM
Haemolytic Activity LC50 (human erythrocytes): >400 µM

Compound: CC[C@@H](C)[C@@H](NC(=O)[C@@H](CCCCN)NC(=O)[C@@H](CCCCN)NC(=O)[C@@H](CC(C)C)NC(=O)[C@@H](CC(C)C)NC(=O)[C@@H](CCCCN)NC(=O)[C@@H](CCSC)NC(=O)[C@@H](Cc1c[nH]c2ccccc12)NC(=O)[C@@H](CCCCN)NC(=O)CN)C(=O)N[C@H](CC(C)C)C(=O)N[C@H](CCCCN)C(N)=O [II] (H-G[dK][dW][dM][dK][dL][dL][dK][dK][dI][dL][dK]-NH2; N-terminus assumed)
Antimicrobial Activity MIC, C. a. (Candida albicans): 5.7 µM
Antimicrobial Activity MIC, E. f. b [1]: 12.7 µM
Antimicrobial Activity MIC, MRSA b [2]: 9.7 µM
Antimicrobial Activity MIC, MRSA 6271 (MRSA 6271 (ATCC 43300)): 11.3 µM
Antimicrobial Activity MIC, P. a. 5482 [3]: 4.5 µM
Antimicrobial Activity MIC, MRSA a [4]: 5.3 µM
Antimicrobial Activity MIC, P. a. a [5]: 12.5 µM
Antimicrobial Activity MIC, S. e. b [6]: 2.0 µM
Haemolytic Activity LC50 (human erythrocytes): >400 µM

Compound: GKWMKMLKKILK-NH2 [IV]
Antimicrobial Activity MIC, C. a. (Candida albicans): 12.7 µM
Antimicrobial Activity MIC, E. f. b [1]: >100 µM
Antimicrobial Activity MIC, MRSA b [2]: 20.0 µM
Antimicrobial Activity MIC, MRSA 6271 (MRSA 6271 (ATCC 43300)): 20.0 µM
Antimicrobial Activity MIC, P. a. 5482 [3]: 5.3 µM
Antimicrobial Activity MIC, MRSA a [4]: 10.0 µM
Antimicrobial Activity MIC, P. a. a [5]: 12.7 µM
Antimicrobial Activity MIC, S. e. b [6]: 3.2 µM
Haemolytic Activity LC50 (human erythrocytes): >200 µM

Compound: CC[C@@H](C)[C@@H](NC(=O)[C@@H](CCCCN)NC(=O)[C@@H](CCCCN)NC(=O)[C@@H](CC(C)C)NC(=O)[C@@H](CC(C)C)NC(=O)[C@@H](CCCCN)NC(=O)[C@@H](CCSC)NC(=O)[C@@H](Cc1c[nH]c2ccccc12)NC(=O)[C@@H](CCCCN)NC(=O)CCN)C(=O)N[C@H](CC(C)C)C(=O)N[C@H](CCCCN)C(N)=O [XII] (H-[βAla][dK][dW][dM][dK][dL][dL][dK][dK][dI][dL][dK]-NH2; N-terminus assumed)
Antimicrobial Activity MIC, C. a. (Candida albicans): 5.3 µM
Antimicrobial Activity MIC, E. f. b [1]: 32.0 µM
Antimicrobial Activity MIC, MRSA b [2]: 16.0 µM
Antimicrobial Activity MIC, MRSA 6271 (MRSA 6271 (ATCC 43300)): 16.0 µM
Antimicrobial Activity MIC, P. a. 5482 [3]: 3.2 µM
Antimicrobial Activity MIC, MRSA a [4]: 8.0 µM
Antimicrobial Activity MIC, P. a. a [5]: 8.0 µM
Antimicrobial Activity MIC, S. e. b [6]: 2.5 µM
Haemolytic Activity LC50 (human erythrocytes): >400 µM

Compound: GKWVKLLKKILK-NH2 [VI]
Antimicrobial Activity MIC, C. a. (Candida albicans): 6.3 µM
Antimicrobial Activity MIC, E. f. b [1]: >100 µM
Antimicrobial Activity MIC, MRSA b [2]: 10.0 µM
Antimicrobial Activity MIC, MRSA 6271 (MRSA 6271 (ATCC 43300)): 9.0 µM
Antimicrobial Activity MIC, P. a. 5482 [3]: 3.0 µM
Antimicrobial Activity MIC, MRSA a [4]: 5.0 µM
Antimicrobial Activity MIC, P. a. a [5]: 12.7 µM
Antimicrobial Activity MIC, S. e. b [6]: 2.5 µM
Haemolytic Activity LC50 (human erythrocytes): >400 µM

Compound: KWMKLLKKILK-NH2 [IX]
Antimicrobial Activity MIC, C. a. (Candida albicans): 9.5 µM
Antimicrobial Activity MIC, E. f. b [1]: >100 µM
Antimicrobial Activity MIC, MRSA b [2]: 17.7 µM
Antimicrobial Activity MIC, MRSA 6271 (MRSA 6271 (ATCC 43300)): 13.5 µM
Antimicrobial Activity MIC, P. a. 5482 [3]: 2.9 µM
Antimicrobial Activity MIC, MRSA a [4]: 8.0 µM
Antimicrobial Activity MIC, P. a. a [5]: 5.8 µM
Antimicrobial Activity MIC, S. e. b [6]: 3.2 µM
Haemolytic Activity LC50 (human erythrocytes): >400 µM

Compound: CC[C@@H](C)[C@@H](NC(=O)[C@@H](CCCCN)NC(=O)[C@@H](CCCCN)NC(=O)[C@@H](CC(C)C)NC(=O)[C@@H](CC(C)C)NC(=O)[C@@H](CCCCN)NC(=O)[C@H](NC(=O)[C@@H](Cc1c[nH]c2ccccc12)NC(=O)[C@@H](CCCCN)NC(=O)CN)C(C)C)C(=O)N[C@H](CC(C)C)C(=O)N[C@H](CCCCN)C(N)=O [VII] (H-G[dK][dW][dV][dK][dL][dL][dK][dK][dI][dL][dK]-NH2; N-terminus assumed)
Antimicrobial Activity MIC, C. a. (Candida albicans): 12.5 µM
Antimicrobial Activity MIC, E. f. b [1]: 25.3 µM
Antimicrobial Activity MIC, MRSA b [2]: 22.0 µM
Antimicrobial Activity MIC, MRSA 6271 (MRSA 6271 (ATCC 43300)): 22.0 µM
Antimicrobial Activity MIC, P. a. 5482 [3]: 4.5 µM
Antimicrobial Activity MIC, MRSA a [4]: 15.0 µM
Antimicrobial Activity MIC, P. a. a [5]: 25.3 µM
Antimicrobial Activity MIC, S. e. b [6]: 4.2 µM
Haemolytic Activity LC50 (human erythrocytes): >400 µM

Compound: GKWLKLLKKILK-NH2 [V]
Antimicrobial Activity MIC, C. a. (Candida albicans): 16.0 µM
Antimicrobial Activity MIC, E. f. b [1]: 50.7 µM
Antimicrobial Activity MIC, MRSA b [2]: 10.0 µM
Antimicrobial Activity MIC, MRSA 6271 (MRSA 6271 (ATCC 43300)): 10.0 µM
Antimicrobial Activity MIC, P. a. 5482 [3]: 4.0 µM
Antimicrobial Activity MIC, MRSA a [4]: 8.0 µM
Antimicrobial Activity MIC, P. a. a [5]: 10.7 µM
Antimicrobial Activity MIC, S. e. b [6]: 2.2 µM
Haemolytic Activity LC50 (human erythrocytes): 196 µM

Compound: GKWMKLLKKILK-NH2 [I]
Antimicrobial Activity MIC, C. a. (Candida albicans): 5.7 µM
animals died (laboratory rats): None
signs of local or systemic toxicity (laboratory rats): did not notice any signs of local or systemic toxicity
Antimicrobial Activity MIC, E. f. b [1]: 13.3 µM
Antimicrobial Activity MIC, MRSA b [2]: 5.7 µM
Antimicrobial Activity MIC, MRSA 6271 (MRSA 6271 (ATCC 43300)): 6.3 µM
Antimicrobial Activity MIC, P. a. 5482 [3]: 2.8 µM
Antimicrobial Activity MIC, MRSA a [4]: 3.6 µM
Antimicrobial Activity MIC, P. a. a [5]: 10.0 µM
Antimicrobial Activity MIC, S. e. b [6]: 2.3 µM
Haemolytic Activity LC50 (human erythrocytes): 339 µM
